Values quoted from earlier work as cited in article PMC12114947, “Evaluation of Violacein Metabolic Stability and Metabolite Identification in Human, Mouse, and Rat Liver Microsomes” (Pharmaceutics, 2025).
pIC50: −log10 of the molar value. Values after ≈ are worked out from the molar mass of the structure shown.

What was measured:
[1] = test system: Trichophyton rubrum; set-up: method as in PMID 26428920; conditions: cited from earlier work
[2] = test system: Candida tropicalis; set-up: method as in PMID 26428920; conditions: cited from earlier work
[3] = test system: P. falciparum 3D7 strain (chloroquine-sensitive); set-up: method as in PMID 29642881, PMID 33689276; conditions: P. falciparum 3D7 (chloroquine-sensitive); cited from earlier work
[4] = buffer, 720 h, pH 5; cited from earlier work

O=C1NC(c2c[nH]c3ccc(O)cc23)=C/C1=C1\C(=O)Nc2ccccc21 [violacein]
MIC [1]: 2 µg/mL (≈ 5.83 µM) | MIC [2]: 16 µg/mL (≈ 46.6 µM) | pIC50 [3]: ~6.40 | Residual pigment remaining unaltered [4]: more than 80%
